These results are taken from US8535740B2, “Compositions from Nigella sativa” (priority 2002, dated 2013).

The test system of test [1] is LPS-stimulated macrophages. As to conditions: published results, El-Mahmoudy 2002; cited from earlier work.
The subject of a further test is C2C12 myocytes. The test is described as follows: Lipolysis (glycerol / free fatty acid release) in C2C12 myocytes. Format: cell-based, murine. The following applies: test materials 5 or 2.5 μg/mL (FIG. 10). On the procedure: (§1) Cell culture and treatment-Culture and treatment of 3T3-L1 adipocytes and C2C12 myocytes was as described in Example 5. Concentrations of the forskolin positive control and test materials are listed in FIG. 9 for adipocytes and FIG. 10 for myocytes. Glycerol assay-Free fatty acid release from 3T3-L1 adipocytes or C2C12 myocytes was quantified by measuring glycerol secretion into the medium. Glycerol was measured spectrophotometrically using the Free Glycerol Determination Kit ([…], Sigma) and an EL 312e Microplate BIO-KINETICS spectrophotometer (BioTek, Winooski, Vt.). Data analysis-Glycerol release from adipocytes and myocytes was expressed, respectively, as the percent increase in free fatty acid secretion (FIG. 9) and relative glycerol content (glycerol index FIG. 10) ±95% confidence intervals of eight observations for one of three representative experiments.

The next test concerns 3T3-L1 adipocytes. The test is described as follows: Lipolysis (glycerol / free fatty acid release) in 3T3-L1 adipocytes. Format: cell-based, murine. As to conditions: forskolin 82 μg/mL, test materials 5 μg/mL (FIG. 9). On the procedure:
as §1

Test [2] relates to IL-6 secretion in 3T3-L1 adipocytes. The test can be described thus: IL-6 secretion in t10-CLA-stimulated 3T3-L1 adipocytes. Format: cell-based, murine. The procedure:
Treatment—Test materials were added four hours prior to the addition of t10-CLA at a concentration of 50 μM. Following overnight incubation, the supernatant media were sampled for determination of IL-6 and adiponectin. Interleukin-6 assay—The IL-6 secreted into the medium in response to […] stimulation was quantified using the Quantikine® Mouse IL-6 Immunoassay kit with no modifications (R&D Systems, Minneapolis, Minn.). […] All supernatant media samples were diluted 1:30 for quantification. Statistical Calculations and Interpretation—Test materials and were assayed in duplicate, while solvent controls were replicated eight times. IL-6 and adiponectin secretion were represented relative to the IL-6 and adiponectin secretion of the t10-CLA only controls as the IL-6 and adiponectin index and differences among the means were analyzed by the student's t-test assuming a five percent probability of a type I error (Excel; Microsoft, Redmond, Wash.).

Test [3] relates to iNOS-mediated NO biosynthesis in C2C12 myocytes. The test can be described thus: LTI cytokine-stimulated NO biosynthesis in C2C12 myocytes. Format: cell-based, murine. As to conditions: Mus musculus, value computed on the basis of TQ content, LPS/TNFα/IFγ stimulation 20 hours, (95% confidence interval), read-out: Median Inhibitory Concentration for iNOS-mediated NO biosynthesis, C2C12 Myocytes. On the procedure:
Mouse C2C12 myoblasts (American Type Culture Collection, Manassas, Va.) were maintained in Dulbecco's modified Eagle's medium (DMEM) supplemented with 10% fetal calf serum (FCS), 50 units/ml penicillin and 50 μg/ml streptomycin. As cells reached confluence, the medium was switched to the differentiation medium containing DMEM and 2% horse serum. Medium was changed every other day. […] At the end of the treatment period, media were sampled for determination of NO. […] Determination of nitrite in waters by microplate fluorescence spectroscopy and HPLC with fluorescence detection. Anal Chem. Aug. 1 1999; 71(15):3003-3007). In a separate, black-walled, 96-well, microtiter plate, a 7 μL aliquot of a 4.8×10^-4 mol NBDM/L solution was added to 200 μL of the supernatant media followed by the addition of 15 μL of concentrated phosphoric acid. After a reaction time of 30 minutes at ambient temperature, the fluorescence was read with 485 nm excitation filter and a 530 nm emission filter in a Packard Fluorocount spectrofluorometer (Model #BF10000, Meridan, Conn.). […] Quantitative analysis of dose-effect relationships: the combined effects of multiple drugs or enzyme inhibitors.

The test system of test [4] is adiponectin secretion in 3T3-L1 adipocytes. The test is described as follows: Adiponectin secretion in t10-CLA-stimulated 3T3-L1 adipocytes. Format: cell-based, murine. The procedure:
Treatment—Test materials were added four hours prior to the addition of t10-CLA at a concentration of 50 μM. Following overnight incubation, the supernatant media were sampled for determination of IL-6 and adiponectin. Adiponectin assay—The adiponectin secreted into the medium was quantified using the Mouse Adiponectin Quantikine® Immunoassay kit with no modifications (R&D Systems, Minneapolis, Minn.). […] Statistical Calculations and Interpretation—Test materials and were assayed in duplicate, while solvent controls were replicated eight times. IL-6 and adiponectin secretion were represented relative to the IL-6 and adiponectin secretion of the t10-CLA only controls as the IL-6 and adiponectin index and differences among the means were analyzed by the student's t-test assuming a five percent probability of a type I error (Excel; Microsoft, Redmond, Wash.).

[5] abbreviates: relative to t10-CLA only control (100), 50 μM t10-CLA, overnight, each material at its tabulated concentration.

Converted amounts (≈) assume the structure as drawn. Marks after values point to notes of the source that are not given here.

As for `CC1=CC(=O)C(C(C)C)=CC1=O` [Thymoquinone (Sigma), thymoquinone], in test [1], the “IC50 for NO inhibition in LPS-stimulated macrophages” value was 1.4 to 2.8 µg/mL. Also, the “free fatty acid release in myocytes” value in the test with C2C12 myocytes is listed as “induced free fatty acid release”. For the same molecule, the “free fatty acid release in adipocytes” value in the test on 3T3-L1 adipocytes is listed as “induced free fatty acid release”. Moreover, the “effect on IL-6 secretion in t10-CLA-stimulated adipocytes” value in test [2] (concentrations of Table 8) is recorded as “inhibited IL-6 secretion”. Moreover, the “IL-6 Index” value in test [2] (setting [5]) was 75*. Moreover, the IC50 in test [3] amounted to 1.9 µg/mL (≈ 11.6 µM). Further, the “effect on t10-CLA-stimulated decrease of adiponectin secretion” value in test [4] (concentrations of Table 8) is given as “attenuated t10-CLA-stimulated decrease of adiponectin secretion”. Further, in test [4] (setting [5]), the “Adiponectin Index” value is 128*.
